Each structure is given as a SMILES string.

This assay relates to T1, Coptodon zillii liver rhodanese.
T1 construct: gene tst
The note with it: co-substrate KCN; standard assay borate pH 9.4, 37 °C; 5-50 mM range.

In general, Km refers to the substrate concentration at which the rate is half of its maximum. Regarding `O=S(O)(O)=S` [sodium thiosulphate], the Michaelis constant (Km) stood at 20 mM.

The record behind these values is article PMC12473897 (Toxics, 2025).
